According to article PMC10424242, “Macrocyclic Peptidomimetic Plasmepsin X Inhibitors with Potent In Vitro and In Vivo Antimalarial Activity” (Journal of Medicinal Chemistry, 2023):
Like-named read-outs stand apart in the source and are kept apart here.

Legend:
[1] = molecular target: recombinant P. falciparum PMX (Plasmodium falciparum, UniProt Q8IAS0); experiment: Recombinant P. falciparum PMX inhibition assay (fluorogenic substrate Rh2N); type: biochemical
Description: The fluorescence of this peptide is quenched by the spatial proximity of the DABCYL/EDANS groups in the uncleaved peptide and is increased upon cleavage at the internal F–I bond. […] Control wells contained no inhibitor, and the plate was blanked against the substrate only in DB. […] All experiments were performed in duplicate.

PMIV = PMIV (Plasmodium falciparum, UniProt Q8IM16); experiment: FRET-based PMIV inhibition assay; type: biochemical, P. falciparum
Description: (§1) A fluorescence resonance energy transfer (FRET)-based assay was performed to assess the ability of the compounds to inhibit PMIV, CatD, and BACE1. Serial dilutions of test compounds were dispensed in a white 96-well plate. […] The mixture was incubated for 20 min at 37 °C. […] IC50 values were calculated with GraphPad Prism 8.0 using the nonlinear regression, variable slope (four parameters). Compounds were tested in triplicate.

cathepsin D (CatD) = cathepsin D (CatD) (Homo sapiens, UniProt P07339); experiment: FRET-based CatD inhibition assay (selectivity counter screen); type: biochemical
Description: as §1

BACE1 = BACE1 (Homo sapiens, UniProt P56817); experiment: FRET-based BACE1 inhibition assay (selectivity counter screen); type: biochemical
Description: as §1

[2] = Liver microsomal metabolic stability; type: in vitro ADME, mouse; conditions: pooled liver microsomes, pH 7.4, mouse liver microsomes, 5 μM; for microsomal CLint at 1 h, 5 μM: read-out: microsomal stability CL(int)
Description: Microsomal stability assays are performed as described elsewhere.[41] Test compounds and pooled mouse liver microsomes are incubated in potassium phosphate buffer in the presence of the cofactor NADPH at 37 °C. Reaction mixtures (700 μL) contain a final concentration of 5 μM test compound, 0.05% DMSO, 0.5 mg/mL microsomes, and ∼0.7–0.9 mM NADPH in 100 mM potassium phosphate buffer at pH 7.4. Reactions are terminated by the addition of 100 μL of the reaction mixture to 900 μL of acetonitrile after 0, 5, 15, 30, 45, and 60 min of incubation. Samples were centrifuged, and the resultant supernatant was analyzed by ultra-performance liquid chromatography–tandem mass spectrometry (UPLC-MS/MS). The amount of remaining compound is calculated and compared to the initial amount of test compound (zero time point). Verapamil is used as a positive control, and samples prepared without cofactor NADPH are used as a negative control (0 and 60 min). The in vitro metabolic stability parameters (half-life value (t1/2) and intrinsic clearance value (Clint)) are calculated from the slope of the Ln of concentration remaining vs the time curve.

[3] = Plasma protein binding (rapid equilibrium dialysis); type: in vitro ADME; conditions: pH 7.4, mouse plasma, 2 h at 37 °C
Description: Plasma protein binding was performed with rapid equilibrium dialysis (RED) device inserts containing a dialysis membrane with a molecular weight cut-off of 8000 Daltons. Inserts were placed in the single-use RED plate without prior preparation.
The test compound at a concentration of 5 μM was added to mouse plasma and dialyzed against phosphate-buffered saline (PBS, pH 7.4) for 2 h at 37 °C. Propranolol hydrochloride was used as a positive control (high PPB), and fluconazole was used as negative control (low PPB). After dialysis, the drug concentration in the buffer and plasma compartments was quantified by liquid chromatography and tandem mass spectrometry (LC-MS/MS) analysis.

[4] = tested on: P. falciparum 3D7 parasites; experiment: Microscopy of synchronized P. falciparum cultures treated from ring stage (development and egress); type: cell-based; conditions: 20 nM
Description: Asexual blood-stage forms of P. falciparum strains 3D7 and Dd2 were maintained at 37 °C in an atmosphere of 1% O2, 5% CO2, and 94% N2 in human RBCs in RPMI 1640 medium containing AlbuMAX II (Thermo Fisher Scientific) and supplemented with 2 mM L-glutamine. The synchronization of parasite cultures was as described previously.[39] Briefly, this involved isolating mature schizont forms by centrifugation over cushions of 70% (v/v) isotonic Percoll (GE Healthcare, Life Sciences) and then allowing the parasites to undergo rupture in the presence of fresh RBCs for 2 h under gentle shaking conditions (100 rpm). Residual schizonts were then removed through a second Percoll separation, followed by treatment with 5% (w/v) sorbitol to finally obtain a highly synchronized preparation of newly invaded ring-stage parasites.
Growth stage progression and parasite morphology were also monitored by microscopic examination at selected time points using Giemsa-stained thin blood films.

[5] = tested on: maturation of the PMX substrate SUB1 (p54 to p47); experiment: Western blot of SUB1 maturation in treated schizonts; type: cell-based, P. falciparum; conditions: 20 nM, 44 h
Description: This phenotype is characteristic of the inhibition of PMX.
(§2) Synchronous parasite cultures were cultured from ring to schizont stage (∼44 h) in the presence of DMSO alone (0.04% v/v; control) or macrocycle compounds (20 nM final concentration). Schizonts were isolated by Percoll enrichment (still in the presence of the test compound), then either immediately frozen or further incubated in the absence of the drug but in the presence of C2 (1 μM) for 1 h at 37°C in the absence of added RBCs or for 3.5 h in the presence of added RBCs. The schizonts without added RBCs were then frozen too, and all schizont samples were then thawed into CHAPS–urea extraction buffer, subjected to sodium dodecyl sulfate-polyacrylamide gel electrophoresis (SDS-PAGE), and analyzed by Western blot, probing with antibodies against SUB1 or RAP1. For schizonts cultured in the presence of added RBCs, ring formation was assessed in two ways: cultures were examined microscopically by Giemsa stain of thin films and were also fixed with glutaraldehyde and processed for quantification of ring formation by flow cytometry as described above.

[6] = tested on: maturation of RAP1, substrate of PMIX; experiment: Western blot of RAP1 maturation in treated schizonts; type: cell-based, P. falciparum; conditions: 20 nM, 44 h
Source text: Figure 4 Macrocycle PMX inhibitors have no effect on intraerythrocytic parasite maturation but prevent egress and maturation of SUB1. […] Scale bar, 20 μm. (B) Simplified schematic of proteolytic maturation of the egress effector SUB1. Conversion of the precursor form to p54 is through autocatalytic removal[32] of the prodomain region (PD), whereas conversion of p54 to p47 is mediated by PMX.[15],[16],[33] (C) Left, Western blot analysis of P. falciparum 3D7 schizonts allowed to mature in the presence of the indicated macrocycle compounds (20 nM), showing defective SUB1 maturation in parasites treated with the indicated macrocycle compounds. Right, Western blot of the same extracts probed with a monoclonal antibody (mAb) specific to the rhoptry protein RAP1, which is a substrate for cleavage by the related P. falciparum protease PMIX. The compounds had no discernible effect on the maturation of RAP1. The results shown are typical of 3 independent experiments.
as §2

[7] = tested on: SUB1 p54 to p47 conversion (PMX activity); experiment: Washout assay, SUB1 maturation by Western blot; type: cell-based, P. falciparum; conditions: 20 nM ∼44 h, C2 1 μM for 1 h
Description: (§3) The schizont cultures lacking added RBCs were supplemented with compound C2, which blocks the discharge of exonemes, the parasite secretory organelles in which PMX and SUB1 are stored before egress. The schizonts without added RBCs were sampled for Western blot analysis, while the schizont cultures containing RBCs were examined by microscopy and flow cytometry after a further 4 h in culture to quantify schizont rupture and new ring formation.
as §2

P. falciparum schizonts = experiment: Washout assay, schizont rupture and new ring formation; type: cell-based; conditions: 20 nM ∼44 h, […] with added RBCs
Description: as §3, §2

[8] = recombinant PMX, read-out: PMX, nM (IC50)

Chain of PMIV (Q8IM16 122-449): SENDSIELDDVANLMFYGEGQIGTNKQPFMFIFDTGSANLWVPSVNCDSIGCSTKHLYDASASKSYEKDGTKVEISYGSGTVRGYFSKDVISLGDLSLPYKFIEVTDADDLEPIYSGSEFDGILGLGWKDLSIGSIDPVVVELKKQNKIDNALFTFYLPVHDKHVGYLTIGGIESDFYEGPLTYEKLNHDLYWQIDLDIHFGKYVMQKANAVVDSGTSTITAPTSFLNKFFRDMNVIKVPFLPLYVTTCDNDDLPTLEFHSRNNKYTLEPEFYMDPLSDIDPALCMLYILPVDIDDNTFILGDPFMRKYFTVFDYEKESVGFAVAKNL
Chain of recombinant P. falciparum PMX (Q8IAS0 222-573): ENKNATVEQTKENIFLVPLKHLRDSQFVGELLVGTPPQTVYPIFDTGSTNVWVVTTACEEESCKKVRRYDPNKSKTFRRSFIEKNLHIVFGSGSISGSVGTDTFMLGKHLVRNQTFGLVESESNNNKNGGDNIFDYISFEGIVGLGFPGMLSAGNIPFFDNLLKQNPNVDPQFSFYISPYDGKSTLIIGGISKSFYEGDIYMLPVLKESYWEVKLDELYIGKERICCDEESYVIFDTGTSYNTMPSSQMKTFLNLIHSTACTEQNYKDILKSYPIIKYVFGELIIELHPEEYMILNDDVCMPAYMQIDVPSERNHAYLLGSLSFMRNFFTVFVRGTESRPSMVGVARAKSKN
Chain of cathepsin D (CatD) (P07339 65-412): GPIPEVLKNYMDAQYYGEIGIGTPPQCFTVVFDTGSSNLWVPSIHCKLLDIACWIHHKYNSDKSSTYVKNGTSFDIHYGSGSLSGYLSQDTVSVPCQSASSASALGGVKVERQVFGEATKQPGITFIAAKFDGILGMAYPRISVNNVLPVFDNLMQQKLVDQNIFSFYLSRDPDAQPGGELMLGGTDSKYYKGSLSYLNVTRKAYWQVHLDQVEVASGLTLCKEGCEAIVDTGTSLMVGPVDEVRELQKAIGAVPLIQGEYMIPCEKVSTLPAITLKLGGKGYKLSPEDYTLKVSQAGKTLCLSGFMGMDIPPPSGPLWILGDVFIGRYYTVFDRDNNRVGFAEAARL
Chain of BACE1 (P56817 46-501): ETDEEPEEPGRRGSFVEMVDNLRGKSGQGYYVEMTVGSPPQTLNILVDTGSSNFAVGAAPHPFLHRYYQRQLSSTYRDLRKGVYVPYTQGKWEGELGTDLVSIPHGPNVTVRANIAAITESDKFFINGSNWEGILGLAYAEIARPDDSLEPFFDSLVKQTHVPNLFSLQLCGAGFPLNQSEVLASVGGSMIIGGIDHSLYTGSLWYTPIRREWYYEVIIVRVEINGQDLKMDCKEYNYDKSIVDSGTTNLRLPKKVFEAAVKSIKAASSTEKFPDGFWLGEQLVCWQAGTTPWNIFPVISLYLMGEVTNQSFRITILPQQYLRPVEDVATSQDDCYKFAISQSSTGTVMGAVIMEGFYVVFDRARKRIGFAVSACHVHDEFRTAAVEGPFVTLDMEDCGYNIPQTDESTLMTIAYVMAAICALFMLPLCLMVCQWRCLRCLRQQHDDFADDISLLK

| Compound | IC50 [1, 8] [nM] | IC50 (PMIV; read-out: PMIV, nM (IC50)) [nM] | IC50 (cathepsin D (CatD)) [nM] | IC50 (BACE1) [nM] | half-life at 1 h, 5 μM [2] [min] | microsomal CLint at 1 h, 5 μM [2] [µL/min/mg] | fraction unbound at 2 h, 5 µM [3] | intraerythrocytic development of ring-stage parasites to schizont stage ([4]; 44 h) | schizont rupture (egress) and appearance of new rings ([4]; 44 h and extended incubation) | maturation of SUB1 (p54 to p47) [5] | maturation of RAP (PMIX substrate) [6] | SUB1 p54 to p47 conversion after washout [7] | new ring formation after washout (P. falciparum schizonts) | IC50 ([1]; Table 3, read-out: PMX, nM (as listed in Table 3)) [nM] | IC50 (PMIV; Table 3, read-out: PMIV, nM (as listed in Table 3)) [nM] |
| --- | --- | --- | --- | --- | --- | --- | --- | --- | --- | --- | --- | --- | --- | --- | --- |
| CCCN1CCCCOc2cccc(c2)C[C@@H]([C@H](O)CNC(C)(C)c2cccc(OC)c2)NC(=O)c2cccc(c2)C1=O [7a, (S)-4-((R)-1-Hydroxy-2-((2-(3-methoxyphenyl)propan-2-yl)amino)ethyl)-12-propyl-7-oxa-3,12-diaza-1,6(1,3)-dibenzenacyclotridecaphane-2,13-dione] | 4.1 ± 0.3 | 60 ± 3 | 270 ± 20 | 380 ± 20 | 8.67 | 160 | 0.029 | Development of ring-stage parasites to the multinucleated schizont stage occurred similarly in all cultures | schizont rupture and appearance of new rings did not occur | clear defect in maturation of the PMX substrate SUB1 | do not affect PMIX activity at these concentrations | efficient conversion of the accumulated SUB1 p54 intermediate to the p47 form | allowed an efficient generation of new rings |  |  |
| CCCN1CCCCc2cccc(c2)C[C@@H]([C@H](O)CNC(C)(C)c2cccc(OC)c2)NC(=O)c2cccc(c2)C1=O [7j, (S)-4-((R)-1-Hydroxy-2-((2-(3-methoxyphenyl)propan-2-yl)amino)ethyl)-11-propyl-3,11-diaza-1,6(1,3)-dibenzenacyclododecaphane-2,12-dione] | 3.8 ± 0.69 | 74 ± 4 | 1370 ± 70 | 3020 ± 150 | 14.4 | 96.4 | 0.0067 |  |  | clear defect in maturation of the PMX substrate SUB1 | do not affect PMIX activity at these concentrations | efficient conversion of the accumulated SUB1 p54 intermediate to the p47 form | allowed an efficient generation of new rings | 3.8 ± 0.69 | 74 ± 4 |
